Assay results taken from the NIST ThermoML archive (doi:10.1016/j.tca.2004.12.012).
Numbers after ± are expanded uncertainties.

Settings: Crystal 2; DTA

Compound: [Br-].[Na+] [sodium bromide]
- Triple point temperature: 1114 ± 3 K
